Laboratory results published in ChEMBL document CHEMBL1201862, “PubChem BioAssay data set” (2004).
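Test compounds were applied to cells in 96-well plates for 48 hours at 5 doses. Here, GI50 denotes the concentration required for 50% inhibition of growth.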 Active and inactive are the calls of the source. No stated cut-off is given here; in the data, active = GI50 up to about 1.1 µM and inactive = higher.

Tests used:
Assay in all cases: inhibition of tumour cell growth, NCI panel, 48 h
MOLT-4 = system: MOLT-4
MDA-MB-231 = system: MDA-MB-231
HCT-116 = system: HCT-116
DU-145 = system: DU-145
HCC 2998 = system: HCC 2998
NCI-H460 = system: NCI-H460
NCI-H522 = system: NCI-H522
A498 = system: A498
SK-MEL-28 = system: SK-MEL-28
SNB-19 = system: SNB-19
HOP-92 = system: HOP-92
A549 = system: A549
U-251 = system: U-251
SF-295 = system: SF-295
HT-29 = system: HT-29
RXF 393 = system: RXF 393
NCI/ADR-RES = system: NCI/ADR-RES
Hs-578T = system: Hs-578T
SF-539 = system: SF-539
SR = system: SR

Measured: GI50

C/C=C\C(CC(=O)NCCC1CN(S(=O)(=O)c2ccc(C)cc2)c2ccccc21)CC(=O)OC (centres undefined)
inactive: MOLT-4 > 100 µM | MDA-MB-231 > 100 µM | HCT-116 > 100 µM | DU-145 > 100 µM | HCC 2998 > 100 µM | NCI-H460 > 100 µM | NCI-H522 > 100 µM | A498 > 100 µM | SK-MEL-28 > 100 µM | SNB-19 > 100 µM | HOP-92 > 100 µM | A549 > 100 µM | U-251 > 100 µM | SF-295 > 100 µM | HT-29 > 100 µM | RXF 393 > 100 µM | NCI/ADR-RES > 100 µM | Hs-578T > 100 µM

C=CCOc1cc(NC(=S)c2ccoc2C)ccc1OC
inactive: MOLT-4 > 100 µM | MDA-MB-231 > 100 µM | HCT-116 > 100 µM | DU-145 > 100 µM | HCC 2998 > 100 µM | NCI-H460 > 100 µM | NCI-H522 > 100 µM | A498 > 100 µM | SK-MEL-28 > 100 µM | SNB-19 > 100 µM | HOP-92 27.9 µM | A549 > 100 µM | U-251 58.9 µM | SF-295 > 100 µM | HT-29 > 100 µM | NCI/ADR-RES > 100 µM | SF-539 > 100 µM | Hs-578T > 100 µM

O=C1CC=C2C3CC4N(CCC45c4ccccc4N1C25)C/C3=C\CO (centres undefined)
inactive: MOLT-4 > 100 µM | MDA-MB-231 > 100 µM | HCT-116 > 100 µM | DU-145 > 100 µM | HCC 2998 > 100 µM | NCI-H460 > 100 µM | NCI-H522 > 100 µM | A498 > 100 µM | SK-MEL-28 > 100 µM | SNB-19 > 100 µM | HOP-92 > 100 µM | A549 > 100 µM | U-251 > 100 µM | SF-295 > 100 µM | HT-29 > 100 µM | NCI/ADR-RES > 100 µM | SF-539 > 100 µM | Hs-578T > 100 µM

CC(=O)Nc1ccc(NC(=O)CC(=O)Nc2ccc(NC(C)=O)cc2)cc1
inactive: MOLT-4 > 100 µM | SR > 100 µM | MDA-MB-231 > 100 µM | HCT-116 > 100 µM | DU-145 > 100 µM | HCC 2998 19.4 µM | NCI-H460 > 100 µM | NCI-H522 > 100 µM | A498 > 100 µM | SK-MEL-28 > 100 µM | SNB-19 > 100 µM | HOP-92 > 100 µM | A549 > 100 µM | U-251 32.1 µM | SF-295 > 100 µM | HT-29 > 100 µM | NCI/ADR-RES > 100 µM | SF-539 > 100 µM | Hs-578T > 100 µM

CCCCCC(O)[C@H]1C(=O)C[C@@H](O[Si](C)(C)C(C)(C)C)[C@@H]1/C=C/CCOCc1ccccc1 (some centres undefined)
inactive: MOLT-4 4.46 µM | MDA-MB-231 29.2 µM | HCT-116 6.9 µM | DU-145 20 µM | HCC 2998 14.9 µM | NCI-H460 16.9 µM | NCI-H522 3.88 µM | A498 17.8 µM | SK-MEL-28 15.5 µM | SNB-19 15 µM | HOP-92 12.4 µM | A549 18 µM | U-251 12.1 µM | SF-295 2.39 µM | HT-29 9.59 µM | RXF 393 12.2 µM | NCI/ADR-RES 12.1 µM | SF-539 4.23 µM | Hs-578T 7.19 µM

C[C@H](CC[C@@H](O)C(C)(C)O)[C@H]1CC[C@@]2(C)[C@@H]3CC=C4[C@@H](CC[C@H](OC5OC(CO)C(O)C(O)C5O)C4(C)C)[C@]3(C)C(=O)C[C@]12C (some centres undefined)
inactive: MOLT-4 21.1 µM | MDA-MB-231 > 100 µM | HCT-116 45.3 µM | DU-145 39 µM | HCC 2998 89.7 µM | NCI-H460 52.4 µM | NCI-H522 37.6 µM | A498 > 100 µM | SK-MEL-28 27.7 µM | SNB-19 62.5 µM | HOP-92 > 100 µM | A549 37.2 µM | U-251 33.6 µM | SF-295 90.4 µM | HT-29 26.1 µM | RXF 393 35.2 µM | NCI/ADR-RES > 100 µM | SF-539 > 100 µM | Hs-578T 37.3 µM

CC(=O)NC1C(OC(C)C(=O)NC(C)C(=O)NC(CCC(=O)NCCCCCNc2ccc([N+](=O)[O-])c3[nH]c4ccccc4c(=O)c23)C(N)=O)C(O)C(CO)OC1(C)OCc1ccccc1 (centres undefined)
inactive: MOLT-4 24.8 µM | SR 14 µM | MDA-MB-231 46.9 µM | HCT-116 23.7 µM | DU-145 64.6 µM | HCC 2998 > 100 µM | NCI-H460 26.7 µM | NCI-H522 > 100 µM | A498 > 100 µM | SNB-19 > 100 µM | A549 50.8 µM | U-251 > 100 µM | SF-295 > 100 µM | HT-29 30.9 µM | RXF 393 87.1 µM | NCI/ADR-RES > 100 µM | SF-539 64.1 µM | Hs-578T > 100 µM

COc1cc2c(cc1O)C1Cc3ccc(OC)c(O)c3C[N+]1(C)CC2 (centres undefined)
inactive: MOLT-4 > 100 µM | MDA-MB-231 > 100 µM | HCT-116 > 100 µM | DU-145 > 100 µM | HCC 2998 > 100 µM | NCI-H460 > 100 µM | A498 > 100 µM | SK-MEL-28 > 100 µM | SNB-19 > 100 µM | HOP-92 > 100 µM | A549 > 100 µM | U-251 > 100 µM | SF-295 > 100 µM | HT-29 > 100 µM | RXF 393 > 100 µM | NCI/ADR-RES > 100 µM | SF-539 > 100 µM | Hs-578T > 100 µM

CCn1ncc2c(=O)n3ncn(-c4ccc(Br)cc4)c3nc21
inactive: MOLT-4 > 100 µM | SR 58.1 µM | MDA-MB-231 > 100 µM | HCT-116 > 100 µM | DU-145 > 100 µM | HCC 2998 > 100 µM | NCI-H522 > 100 µM | A498 > 100 µM | SK-MEL-28 > 100 µM | SNB-19 > 100 µM | A549 > 100 µM | U-251 > 100 µM | SF-295 > 100 µM | HT-29 > 100 µM | RXF 393 > 100 µM | NCI/ADR-RES > 100 µM | Hs-578T > 100 µM

C=CCN(c1cc(OCc2ccccc2)c2c(c1)c(C)cn2S(=O)(=O)c1ccccc1)S(C)(=O)=O
inactive: MOLT-4 > 100 µM | SR > 100 µM | MDA-MB-231 > 100 µM | HCT-116 > 100 µM | DU-145 > 100 µM | HCC 2998 > 100 µM | NCI-H460 > 100 µM | NCI-H522 > 100 µM | SK-MEL-28 > 100 µM | SNB-19 > 100 µM | HOP-92 > 100 µM | A549 > 100 µM | U-251 > 100 µM | SF-295 > 100 µM | HT-29 > 100 µM | RXF 393 > 100 µM | NCI/ADR-RES > 100 µM | SF-539 > 100 µM | Hs-578T > 100 µM

COc1cc(/C=C2\CCC/C(=C\c3cc(OC)c(O)c(OC)c3)C2=O)cc(OC)c1O
inactive: MOLT-4 4.38 µM | SR 3.8 µM | MDA-MB-231 2.71 µM | HCT-116 1.32 µM | DU-145 2.39 µM | HCC 2998 1.35 µM | NCI-H460 2.22 µM | NCI-H522 1.53 µM | A498 1.41 µM | SK-MEL-28 2.69 µM | SNB-19 1.81 µM | A549 1.67 µM | U-251 1.36 µM | SF-295 2.03 µM | HT-29 12.9 µM | RXF 393 1.43 µM | NCI/ADR-RES 2.19 µM | SF-539 2.16 µM | Hs-578T 3.75 µM

COc1ccc(N2C(=O)CC(c3c[nH]c4ncccc34)C2=O)cc1 (centres undefined)
inactive: MOLT-4 > 20.7 µM | MDA-MB-231 20 µM | HCT-116 22.5 µM | DU-145 > 100 µM | HCC 2998 > 100 µM | NCI-H460 > 100 µM | NCI-H522 7.98 µM | A498 58.5 µM | SK-MEL-28 29 µM | SNB-19 > 100 µM | HOP-92 19.7 µM | A549 > 100 µM | U-251 > 100 µM | SF-295 > 100 µM | HT-29 19.8 µM | RXF 393 23.9 µM | NCI/ADR-RES > 53 µM | SF-539 > 47.2 µM | Hs-578T > 100 µM

CC1=N[C@](C)(C2CC3C=CC2C3=O)COC1=O (some centres undefined)
inactive: MOLT-4 > 100 µM | SR > 100 µM | MDA-MB-231 > 100 µM | HCT-116 > 100 µM | DU-145 > 100 µM | HCC 2998 > 100 µM | NCI-H460 > 100 µM | NCI-H522 > 100 µM | A498 > 100 µM | SK-MEL-28 > 100 µM | SNB-19 > 100 µM | HOP-92 > 100 µM | A549 > 100 µM | U-251 > 100 µM | SF-295 > 100 µM | HT-29 > 100 µM | RXF 393 > 100 µM | SF-539 > 100 µM | Hs-578T > 100 µM

Cc1ccc(OCCn2cc(Nc3ccccc3)c(=O)n(CCOc3ccc(C)cc3)c2=O)cc1
inactive: MOLT-4 67.1 µM | MDA-MB-231 69.5 µM | HCT-116 > 100 µM | DU-145 > 100 µM | HCC 2998 > 100 µM | NCI-H460 > 100 µM | NCI-H522 97.7 µM | A498 > 100 µM | SK-MEL-28 > 100 µM | SNB-19 48.9 µM | HOP-92 44.5 µM | A549 28.8 µM | U-251 51.6 µM | SF-295 50.2 µM | HT-29 51.1 µM | RXF 393 23.5 µM | NCI/ADR-RES > 100 µM | SF-539 > 100 µM | Hs-578T 67.6 µM
